Experiments:
prostaglandin E2 (PGE2) = assay: Release of PGE2 by NCTC-2544 keratinocytes stimulated by PMA; assay type: cell-based, human; settings: NCTC-2544 stimulated by PMA
Procedure: (§1) The effects of compound 1 were evaluated on two routes of inflammation, the “chemokine” route and the “prostaglandin” route, by measuring the release of interleukin-8 (IL-8) and of prostaglandin E2 (PGE2) by a human keratinocyte line NCTC-2544 stimulated by phorbol-myristate acetate (PMA).

PPARδ (h) = biological target: T1, PPARδ (h) (Homo sapiens, UniProt Q03181); assay: PPARδ agonist effect, coactivator Alpha screen; assay type: biochemical
T1 sequence (Q03181 1-441): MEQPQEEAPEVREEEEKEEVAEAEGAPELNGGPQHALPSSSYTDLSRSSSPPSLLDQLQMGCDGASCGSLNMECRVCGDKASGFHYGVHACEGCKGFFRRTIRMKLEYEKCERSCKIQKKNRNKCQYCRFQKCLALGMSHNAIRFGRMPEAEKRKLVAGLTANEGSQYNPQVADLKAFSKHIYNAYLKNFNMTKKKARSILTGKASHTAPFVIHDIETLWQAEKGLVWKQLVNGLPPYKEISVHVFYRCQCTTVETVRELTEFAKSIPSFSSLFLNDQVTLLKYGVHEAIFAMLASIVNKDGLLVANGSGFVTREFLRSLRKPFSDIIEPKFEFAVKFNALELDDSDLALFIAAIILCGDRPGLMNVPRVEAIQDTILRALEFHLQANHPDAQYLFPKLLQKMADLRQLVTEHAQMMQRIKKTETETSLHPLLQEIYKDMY
Procedure: (§2) The agonist or antagonist activity of compound 1 on the PPAR receptors was tested by fluorescence techniques. • Material and Methods
(§3) The results are expressed as: • percentage of control specific agonist response (measured specific response/control specific agonist response)×100) and • percentage inhibition of the control specific agonist response (100−((measured specific response)/control specific agonist response)×100)) obtained in the presence of compound 1.
(§4) The EC50 values (concentration at which the maximum specific response is 50%) and the IC50 values (concentration at which the maximum control specific agonist response is inhibited by 50%) are determined by non-linear regression analysis of the concentration-response curves with a mean replicated value using adjustment of Hill's equation

interleukin-8 (IL-8) = assay: Release of IL-8 by NCTC-2544 keratinocytes stimulated by PMA; assay type: cell-based, human; settings: NCTC-2544 stimulated by PMA
Procedure: as §1

PPARα (h) = biological target: T2, PPARα (h) (Homo sapiens, UniProt Q07869); assay: PPARα antagonist effect, coactivator Alpha screen; assay type: biochemical
T2 sequence (Q07869 1-468): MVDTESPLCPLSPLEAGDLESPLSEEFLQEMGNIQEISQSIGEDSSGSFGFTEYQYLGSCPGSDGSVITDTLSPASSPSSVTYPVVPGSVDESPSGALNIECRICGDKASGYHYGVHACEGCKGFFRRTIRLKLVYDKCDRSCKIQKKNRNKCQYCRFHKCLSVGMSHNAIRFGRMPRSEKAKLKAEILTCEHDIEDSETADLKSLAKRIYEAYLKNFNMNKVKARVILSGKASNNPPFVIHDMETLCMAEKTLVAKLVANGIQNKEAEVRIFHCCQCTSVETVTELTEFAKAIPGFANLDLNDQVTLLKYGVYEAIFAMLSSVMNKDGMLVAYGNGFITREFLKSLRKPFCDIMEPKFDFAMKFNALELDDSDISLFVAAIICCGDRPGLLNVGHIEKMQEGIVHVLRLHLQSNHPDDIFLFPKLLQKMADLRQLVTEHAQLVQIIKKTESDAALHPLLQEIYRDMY
Procedure: as §2, §3, §4
For the antagonists, the apparent dissociation constants (KB) were calculated using the modified Cheng-Prusoff equation

PPARγ (h) = biological target: T3, PPARγ (h) (Homo sapiens, UniProt P37231); assay: PPARγ agonist effect, coactivator Alpha screen; assay type: biochemical
T3 construct: Cerep (contract laboratory that ran the assay)
T3 sequence (P37231 1-505): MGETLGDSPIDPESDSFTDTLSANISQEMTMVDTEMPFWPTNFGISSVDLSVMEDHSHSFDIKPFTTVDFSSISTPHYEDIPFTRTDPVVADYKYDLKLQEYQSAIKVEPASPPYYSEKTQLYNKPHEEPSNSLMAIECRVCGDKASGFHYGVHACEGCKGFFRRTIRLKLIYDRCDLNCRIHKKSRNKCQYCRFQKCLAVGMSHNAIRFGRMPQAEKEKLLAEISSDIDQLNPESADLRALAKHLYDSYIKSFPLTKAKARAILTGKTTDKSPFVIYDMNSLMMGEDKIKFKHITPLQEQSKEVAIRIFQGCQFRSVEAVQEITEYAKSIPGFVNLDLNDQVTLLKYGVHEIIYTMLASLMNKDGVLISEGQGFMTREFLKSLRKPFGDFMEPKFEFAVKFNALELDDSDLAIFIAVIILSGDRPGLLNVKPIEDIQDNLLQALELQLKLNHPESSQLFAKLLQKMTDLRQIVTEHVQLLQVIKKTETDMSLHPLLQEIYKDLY
Procedure: as §2, §3, §4

B16 melanocytes = assay: Cell viability, MTT reduction test; assay type: cell-based
Procedure: The melanocytes were seeded in a 96-well plate and were cultured for 24 h (37° C., 5% CO2, DMEM 1 g/L glucose without phenol red supplemented with glucose at 3 g/L, L-glutamine at 2 mM, penicillin at 50 U/mL, streptomycin at 50 μg/mL, foetal calf serum (FCS) at 10%). After incubation, the culture medium was then replaced with culture medium supplemented or not supplemented (unstimulated control) with a stable derivative of α-MSH and containing or not containing (controls) the test compounds or the reference (kojic acid at 25, 100, 400, 800 μg/mL). Each experiment was carried out with n=3, apart from the controls carried out with n=6, then the cells were incubated for 72 h. Wells without cells received in parallel the same quantities of medium supplemented or not supplemented with NDP-MSH and containing or not containing the test compounds or the reference in order to quantify the background noise associated with the presence of the compounds. At the end of the treatment, the cells were incubated in the presence of MTT (tetrazolium salt), the transformation of which to blue crystals of formazan is proportional to the activity of succinate dehydrogenase (mitochondrial enzyme). After dissociation of the cells, the formazan was dissolved in DMSO medium and the optical density (OD), representative of the number of living cells and of their metabolic reactivity, was measured with a microplate reader at 540 nm (VERSAmax, Molecular Devices). The operating conditions are the same as in Example 12.

SMILES: Oc1ccccc1CCOc1ccc(F)cc1 [Compound 1, 2-[2-(4-fluoro-phenoxy)-ethyl]-phenol]
- Release of PGE2 (prostaglandin E2 (PGE2)): concentration-dependent inhibition
- % Control agonist response (PPARδ (h); 10^−5 M): 2%
- % Control agonist response (PPARδ (h); 10^−6 M): 4%
- % Control agonist response (PPARδ (h); 10^−7 M): 2%
- PPARδ agonist activity (conclusion in words) (PPARδ (h); 10^−7 to 10^−5 M): not an agonist
- Release of IL-8 (interleukin-8 (IL-8)): without altering
- inhibition at 10 µM (PPARα (h); 10^−5 M, read-out: % Inhibition of control agonist response): 4%
- inhibition at 1 µM (PPARα (h); 10^−6 M, read-out: % Inhibition of control agonist response): 0%
- inhibition at 0.1 µM (PPARα (h); 10^−7 M, read-out: % Inhibition of control agonist response): 1%
- PPARα antagonist activity (conclusion in words) (PPARα (h); 10^−7 to 10^−5 M): not an antagonist
- % Control agonist response (PPARγ (h); 10^−5 M): 0%
- % Control agonist response (PPARγ (h); 10^−6 M): 0%
- % Control agonist response (PPARγ (h); 10^−7 M): 0%
- PPARγ agonist activity (conclusion in words) (PPARγ (h); 10^−7 to 10^−5 M): not an agonist
- Viability (MTT) % stimulated control (B16 melanocytes; 10 μM, B16, 72 h, Table 2): 83%
- Viability (MTT) % stimulated control (B16 melanocytes; 30 μM, B16, 72 h, Table 2): 86%
- Viability (MTT) % stimulated control (B16 melanocytes; 30 μM, comparison with 2 reference molecules, Table 3): 85%
- Viability (MTT) % stimulated control (B16 melanocytes; 100 μM, B16, 72 h, Table 2): 22%
- Viability (MTT) % stimulated control (B16 melanocytes; 100 μM, comparison with 2 reference molecules, Table 3): 13%

— patent US20150004110A1, “NOVEL ANTI-AGING AND DEPIGMENTING COSMETIC COMPOSITIONS” (DIVERCHIM, priority 2011, published 2015)
